15 compounds from US10213429B2, “Imidazo-pyrazinyl derivatives useful as soluble guanylate cyclase activators” (Merck Sharp & Dohme Corp., priority 2015, dated 2019) can be followed below.

For this test, the target named is T1, sGC α1/β1 heterodimer (Homo sapiens, UniProt Q02108+Q02153).
T1 construct: expressed in transfected cells; host or cells: CHO-K1 (clone #7, CHO-K1/sGC)
T1 sequence (Q02108 1-690): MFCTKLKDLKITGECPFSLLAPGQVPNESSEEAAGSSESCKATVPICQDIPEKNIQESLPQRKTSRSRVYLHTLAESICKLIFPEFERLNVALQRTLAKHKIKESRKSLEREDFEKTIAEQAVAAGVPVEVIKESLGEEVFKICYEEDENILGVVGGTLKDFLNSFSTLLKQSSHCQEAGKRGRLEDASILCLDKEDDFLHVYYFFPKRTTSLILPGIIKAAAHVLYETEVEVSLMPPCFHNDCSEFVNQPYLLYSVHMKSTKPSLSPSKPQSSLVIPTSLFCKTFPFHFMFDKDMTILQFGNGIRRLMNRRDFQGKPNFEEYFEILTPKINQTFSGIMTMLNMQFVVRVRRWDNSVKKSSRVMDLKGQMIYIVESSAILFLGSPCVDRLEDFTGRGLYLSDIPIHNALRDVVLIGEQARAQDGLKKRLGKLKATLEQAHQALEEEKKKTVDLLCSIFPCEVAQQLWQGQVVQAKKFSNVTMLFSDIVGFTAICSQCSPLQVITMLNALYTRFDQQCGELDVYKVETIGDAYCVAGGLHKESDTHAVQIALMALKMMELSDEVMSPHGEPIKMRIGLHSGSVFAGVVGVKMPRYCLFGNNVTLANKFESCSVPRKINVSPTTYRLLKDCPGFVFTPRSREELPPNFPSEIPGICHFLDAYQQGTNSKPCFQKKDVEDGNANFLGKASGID
T1 sequence (Q02153 1-619): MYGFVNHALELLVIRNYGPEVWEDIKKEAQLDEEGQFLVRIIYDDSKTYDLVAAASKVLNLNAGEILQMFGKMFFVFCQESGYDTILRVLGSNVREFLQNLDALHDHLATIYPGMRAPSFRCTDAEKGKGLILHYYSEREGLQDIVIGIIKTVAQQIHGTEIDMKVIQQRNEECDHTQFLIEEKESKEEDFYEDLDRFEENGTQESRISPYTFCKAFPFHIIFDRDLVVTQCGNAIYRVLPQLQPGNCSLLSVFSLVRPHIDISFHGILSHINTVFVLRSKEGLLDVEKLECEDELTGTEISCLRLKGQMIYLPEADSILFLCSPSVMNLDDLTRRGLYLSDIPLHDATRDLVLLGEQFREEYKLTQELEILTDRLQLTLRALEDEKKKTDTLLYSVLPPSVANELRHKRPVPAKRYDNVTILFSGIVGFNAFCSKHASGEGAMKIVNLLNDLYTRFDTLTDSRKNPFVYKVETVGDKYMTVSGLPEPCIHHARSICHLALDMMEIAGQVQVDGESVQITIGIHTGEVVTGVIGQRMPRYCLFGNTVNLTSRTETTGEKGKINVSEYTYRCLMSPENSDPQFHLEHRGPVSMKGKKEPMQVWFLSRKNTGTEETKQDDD
Kind of test: Cell-Based sGC Functional Assay (CASA Assay), cGMP by HTRF in CHO-K1/sGC cells. Conditions: for Emax: CHO-K1, percent activation relative to maximum cGMP production of Compound A (= 100%), read-out: % Act.; for EC50: cGMP production, 1 hr at 37° C., 4P fit, presence or absence of 1 μM DETA-NO not given, read-out: IP (nM) (inflection point); for % Act.: percent activation relative to maximum cGMP production of Compound A (= 100%). The source says:
Biological Assay 1: Cell-Based sGC Functional Assay (CASA Assay)
sGC is a heme-containing enzyme that converts GTP to secondary messenger cGMP. Increases in cGMP levels affect several physiological processes including vasorelaxation through multiple downstream pathways. […] Heme-dependent activators (HDAs) preferentially activate sGC containing a ferrous heme group. To determine the effect of sGC activators on enzyme activity, the CASA assay was developed to monitor the generation of cGMP in a cell line that stably expresses the heterodimeric sGC protein.
A CHO-K1 cell line stably expressing the sGC α1/β1 heterodimer was generated using a standard transfection protocol. CHO-K1 cells were transfected with plasmids pIREShyghsGCα1 and pIRESneo-hsGCβ1 simultaneously using FUGENE reagent. Clones that stably express both subunits were selected with hygromycin and neomycin for ˜2 weeks. Clone #7 was chosen for the assay and was designated CHO-K1/sGC. CHO-K1/sGC cells were maintained in F-K12 medium containing 10% heat-inactivated Fetal Bovine Serum (FBS), 100 μg/mL penicillin/streptomycin, 0.5 mg/mL hygromycin and 0.25 mg/mL G418. The cells were then cryopreserved in LN2. On the day of the assay, cells were thawed and resuspended in EBSS Assay Buffer (Sigma, E3024) supplemented with 5 mM MgCl2, 10 mM HEPES (4-(2-hydroxyethyl)piperazine-1-ethanesulfonic acid) and 0.05% BSA (bovine serum albumin) (EAB) and cell density was then adjusted to 4×10^5/mL with EAB. IBMX (3-isobutyl-1-methylxanthin, 0.5 mM) was added to inhibit degradation of cGMP. Compounds were diluted from DMSO stock solutions and added to the assay at a final DMSO concentration of 2.5%. Cells were incubated with compounds in the presence and absence of 1 μM of Diethylenetriamine/nitric oxide adduct (DETA-NO; Sigma, 17018) for 1 hr at 37° C. At the end of the incubation period, the reaction was terminated and the cells were lysed with the detection reagents from Cisbio Kits. The level of intracellular cGMP was determined using an HTRF-based assay kit (CisBio, 62GM2PEC), which detects the displacement of a fluorescence labeled cGMP from its specific antibody. The cGMP produced by test compounds was directly compared to the maximum cGMP production (this value was set to equal 100% activation.) of the published sGC-HDA Compound A:
[drawing 175] (Example 1 in WO 2010/065275, published Jun. 10, 2010). The test compounds' activities were then expressed as a percentage of Compound A, the standard in every experiment. This percent activation was calculated either in the presence or absence of DETA-NO which was then plotted. IP and maximum fold induction was derived using ADA analysis software for 4P fit.
The compounds in the Examples of the instant invention had inflection points (IP) less than or equal to 10 μM and most less than or equal to about 1 μM.
Background: Time-resolved FRET reads energy transfer from a long-lived donor to a nearby acceptor.

With `CCCCc1nc(-c2nc(O)c3c(n2)NC(=O)C3(C)c2ccc(F)cn2)cn2ccnc12` (stereo not drawn) [Example 83B, 2-(8-butylimidazo[1,2-a]pyrazin-6-yl)-5-(5-fluoropyridin-2-yl)-4-hydroxy-5-methyl-5H-pyrrolo[2,3-d]pyrimidin-6(7H)-one], the Emax turned out to be 109% and the EC50 came out at 234 nM.
The like results for `Cc1nc(-c2cn3ccnc3c(CCC(F)(F)C(F)(F)F)n2)nc2c1C(C)(c1ccc(F)cc1)C(=O)N2` (stereo not drawn) [Example 77A, 5-(4-fluorophenyl)-4,5-dimethyl-2-(8-(3,3,4,4,4-pentafluorobutyl)imidazo [1,2-a]pyrazin-6-yl)-5H-pyrrolo[2,3-d]pyrimidin-6(7H)-one] were, in that order, 117% and 170 nM.
The like results for `CCCCc1nc(-c2nc(O)c3c(n2)NC(=O)C3(c2ccc(F)c(F)c2)C2CC2)cn2ccnc12` (stereo not drawn) [Example 19A, 2-(8-butylimidazo[1,2-a]pyrazin-6-yl)-5-cyclopropyl-5-(3,4-difluorophenyl)-4-hydroxy-5H-pyrrolo[2,3-d]pyrimidin-6(7H)-one] were, in that order, 128% and 107 nM.
As to `O=C1Nc2nc(-c3cn4ccnc4c(Cc4ccccc4F)n3)ncc2C1(C(=O)NC1CC1)C1CC1` (single isomer, unassigned) [Example 70A, N,5-dicyclopropyl-2-(8-(2-fluorobenzyl)imidazo[1,2-a]pyrazin-6-yl)-6-oxo-6,7-dihydro-5H-pyrrolo[2,3-d]pyrimidine-5-carboxamide], the EC50 turned out to be 179 nM and the “% Act.” value is 169%.
The matching figures for `O=C1Nc2nc(-c3cn4ccnc4c(Cc4ccc(F)cc4)n3)ncc2C1(C(=O)NC1CC1)C1CC1` (single isomer, unassigned) [Example 68B, N,5-dicyclopropyl-2-(8-(4-fluorobenzyl)imidazo[1,2-a]pyrazin-6-yl)-6-oxo-6,7-dihydro-5H-pyrrolo[2,3-d]pyrimidine-5-carboxamide]: 83 nM and 120%.
On to `CC1(c2ccc(Cl)cc2)C(=O)Nc2nc(-c3cn4ccnc4c(CCC(F)(F)F)n3)ncc21` (stereo not drawn) [Example 61A, 5-(4-chlorophenyl)-5-methyl-2-(8-(3,3,3-trifluoropropyl)imidazo[1,2-a]pyrazin-6-yl)-5H-pyrrolo[2,3-d]pyrimidin-6(7H)-one], for which the Emax turned out to be 104% and the EC50 was 401 nM.
Take `CC1(c2ccc(Cl)cc2)C(=O)Nc2nc(-c3cn4ccnc4cn3)nc(-c3ccccc3)c21` (stereo not drawn) [Example 84A, 5-(4-Chlorophenyl)-2-(imidazo[1,2-a]pyrazin-6-yl)-5-methyl-4-phenyl-5H-pyrrolo[2,3-d]pyrimidin-6(7H)-one]: the Emax stood at 127% and the EC50 was 105 nM.
As to `CC1(c2ccc(F)cn2)C(=O)Nc2nc(-c3cn4ccnc4c(CCC(F)(F)C(F)(F)F)n3)nc(C3CC3)c21` (stereo not drawn) [Example 71B, 4-Cyclopropyl-5-(5-fluoropyridin-2-yl)-5-methyl-2-(8-(3,3,4,4,4-pentafluorobutyl)imidazo[1,2-a]pyrazin-6-yl)-5H-pyrrolo[2,3-d]pyrimidin-6(7H)-one], the Emax amounted to 135% and the EC50 worked out at 23 nM.
The matching figures for `O=C1Nc2nc(-c3cn4ccnc4c(CCCC(F)(F)F)n3)nc(O)c2C1(c1ccc(F)c(F)c1)C1CC1` (stereo not drawn) [Example 20A, 5-cyclopropyl-5-(3,4-difluorophenyl)-4-hydroxy-2-(8-(4,4,4-trifluorobutyl)imidazo[1,2-a]pyrazin-6-yl)-5H-pyrrolo[2,3-d]pyrimidin-6(7H)-one]: 139% and 462 nM.
On to `O=C1Nc2nc(-c3cn4ccnc4c(CCCC(F)(F)F)n3)nc(O)c2C1(c1ccc(Cl)c(F)c1)C1CC1` (stereo not drawn) [Example 22A, 5-(4-chloro-3-fluorophenyl)-5-cyclopropyl-4-hydroxy-2-(8-(4,4,4-trifluorobutyl)imidazo[1,2-a]pyrazin-6-yl)-5H-pyrrolo[2,3-d]pyrimidin-6(7H)-one], for which the Emax was found to be 126% and the EC50 was 438 nM.
The matching figures for `CCCCc1nc(-c2ncc3c(n2)NC(=O)C3(c2ccc(Cl)cc2F)C2CC2)cn2ccnc12` (stereo not drawn) [Example 45A, 2-(8-butylimidazo[1,2-a]pyrazin-6-yl)-5-(4-chloro-2-fluorophenyl)-5-cyclopropyl-5H-pyrrolo[2,3-d]pyrimidin-6(7H)-one]: 93% and 5 nM.
The matching figures for `O=C1Nc2nc(-c3cn4ccnc4c(CCCC(F)(F)F)n3)ncc2C1(c1ccc(F)cc1)C1CC1` (stereo not drawn) [Example 60B, 5-cyclopropyl-5-(4-fluorophenyl)-2-(8-(4,4,4-trifluorobutyl)imidazo[1,2-a]pyrazin-6-yl)-5H-pyrrolo[2,3-d]pyrimidin-6(7H)-one]: 126% and 30 nM.
The like results for `O=C1Nc2nc(-c3cn4ccnc4c(CCCC(F)(F)F)n3)nc(O)c2C1(c1ccc(Cl)cn1)C1CC1` (stereo not drawn) [Example 10A, 5-(5-chloropyridin-2-yl)-5-cyclopropyl-4-hydroxy-2-(8-(4,4,4-trifluorobutyl)imidazo[1,2-a]pyrazin-6-yl)-5H-pyrrolo[2,3-d]pyrimidin-6(7H)-one] were, in that order, 126% and 658 nM.
As to `CC1(c2ccc(Cl)cc2)C(=O)Nc2nc(-c3cn4ccnc4c(CCC(F)(F)F)n3)nc(C3CC3)c21` (stereo not drawn) [Example 74A, 5-(4-chlorophenyl)-4-cyclopropyl-5-methyl-2-(8-(3,3,3-trifluoropropyl)imidazo[1,2-a]pyrazin-6-yl)-5H-pyrrolo[2,3-d]pyrimidin-6(7H)-one], the Emax worked out at 165% and the EC50 was 124 nM.
The like results for `CCCOc1nc(-c2ncc3c(n2)NC(=O)C3(C)c2ccc(F)cc2)cn2ccnc12` (stereo not drawn) [Example 92A, 5-(4-Fluorophenyl)-5-methyl-2-(8-propoxyimidazo[1,2-a]pyrazin-6-yl)-5H-pyrrolo[2,3-d]pyrimidin-6(7H)-one] were, in that order, 83% and 282 nM.
